The numbers were not newly measured in patent publication US6066339A (priority 1997, dated 2000), which cites them from elsewhere.

In this data set the test system is μ-opioid. As to conditions: animal experiments.

For the compound `CN1CC[C@]23c4c5ccc(O)c4O[C@H]2[C@@H](O[C@@H]2O[C@H](C(=O)O)[C@@H](O)[C@H](O)[C@H]2O)C=C[C@H]3[C@H]1C5` [morphine-6-glucuronide], the μ-opioid agonism entry is “potent μ-opioid agonist”.
